Laboratory results from patent US20220041647A1, “ESTRA-1,3,5(10)-TRIENE COMPOUNDS CONDENSED IN POSITION 16(17) WITH A PYRAZOLE RING AS INHIBITORS OF 17-HSD1” (FORENDO PHARMA LTD, priority 2018, published 2022).

Columns and labels:
[1] = target: T1, recombinant human 17β-HSD2 (Homo sapiens, UniProt P37059); assay: Inhibition of recombinant human 17β-HSD2 (estradiol to estrone conversion, HPLC/radioactivity); assay type: biochemical; conditions: compound 1 μM; 50 nM estradiol, 1 mM NADH, 30 min RT
T1 construct: made in house; host or cells: Sd9 (Sf9) insect cells, baculovirus (Bac to Bac Expression System)
T1 sequence (P37059 1-387): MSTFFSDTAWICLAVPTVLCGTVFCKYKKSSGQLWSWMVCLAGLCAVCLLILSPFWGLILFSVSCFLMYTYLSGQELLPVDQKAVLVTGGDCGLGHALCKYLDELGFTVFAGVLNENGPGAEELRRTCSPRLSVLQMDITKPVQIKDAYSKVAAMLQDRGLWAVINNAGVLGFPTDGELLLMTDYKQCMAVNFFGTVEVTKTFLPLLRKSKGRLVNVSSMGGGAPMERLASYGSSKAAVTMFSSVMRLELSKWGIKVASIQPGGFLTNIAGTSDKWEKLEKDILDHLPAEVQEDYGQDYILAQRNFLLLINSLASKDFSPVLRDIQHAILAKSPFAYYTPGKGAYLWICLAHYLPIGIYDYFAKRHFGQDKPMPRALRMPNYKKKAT
Method in brief: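 Membrane extract of Sf9 cells expressing recombinant human 17β-HSD2 (4 μg/ml), in 20 mM KH2PO4 pH 8.5 with 50 nM ^3H-spiked estradiol and 1 mM NADH, 30 min at RT, 1% DMSO. Compound at 1 μM or 0.1 μM; estrone formation by HPLC radioactivity, % inhibition relative to uninhibited conversion.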

[2] = test system: HSD1 enzyme that is expressed in rabbit placenta tissue; assay: Inhibition of E1 to E2 conversion in rabbit placenta tissue homogenate; assay type: biochemical; conditions: compound 100 nM, 30 nM estrone, 1 mM β-NADPH, 30 min
Method in brief: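 Rabbit placenta homogenate (20 mM KH2PO4, 1 mM EDTA, pH 7.4) incubated 30 min with 1 mM β-NADPH, 30 nM estrone plus 5 nM [3H]-estrone tracer, and inhibitor at 1 μM or 0.1 μM (1% DMSO). Stopped with TCA; estrone and estradiol resolved by HPLC with scintillation counting; % inhibition = 100 − % conversion relative to uninhibited control.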

| Structure (SMILES) | inhibition at 1 µM [1] | Rabbit placenta inhibition % @100 nM [2] |
| --- | --- | --- |
| C[C@]12CCC3c4ccc(Cl)cc4CCC3C1[C@H](CCC(=O)Nc1cc3c([nH]c1=O)CCCC3)c1c[nH]nc12 (stereo partly drawn) [Compound 123, 3-((8aS,12S)-4-chloro-8a-methyl-1,2,6b,7,8,8a,10,12,12a,12b-decahydronaphtho[2′,1′:4,5]indeno[1,2-c]pyrazol-12-yl)-N-(2-oxo-1,2,5,6,7,8-hexahydroquinolin-3-yl) propanamide] | 8% | 17% |
| CN(C)C(=O)c1ccc(NC(=O)CC[C@@H]2c3c[nH]nc3[C@@]3(C)CCC4c5ccc(Cl)cc5CCC4C23)nc1 (stereo partly drawn) [Compound 126, 6-(3-((8aS,12S)-4-chloro-8a-methyl-1,2,6b,7,8,8a,10,12,12a,12b-decahydronaphtho[2′,1′:4,5]indeno[1,2-c]pyrazol-12-yl)propanamido)-N,N-dimethylnicotinamide] | 12% | 37% |
| CC(C)c1ccc(NC(=O)CC[C@@H]2c3c[nH]nc3[C@@]3(C)CCC4c5ccccc5CCC4C23)nc1 (stereo partly drawn) [Compound 138, N-(5-isopropylpyridin-2-yl)-3-((8aS,12S)-8a-methyl-1,2,6b,7,8,8a,10,12,12a,12b-decahydronaphtho[2′,1′:4,5]indeno[1,2-c]pyrazol-12-yl)propanamide] | 7% | 18% |
| COc1ccc(NC(=O)CC[C@@H]2c3c[nH]nc3[C@@]3(C)CCC4c5ccccc5CCC4C23)nc1 (stereo partly drawn) [Compound 141, N-(5-methoxypyridin-2-yl)-3-((8aS,12S)-8a-methyl-1,2,6b,7,8,8a,10,12,12a,12b-decahydronaphtho[2′,1′:4,5]indeno[1,2-c]pyrazol-12-yl)propanamide] | -1% | 35% |
| COc1ccc(NC(=O)CC[C@@H]2c3c[nH]nc3[C@@]3(C)CCC4c5ccccc5CCC4C23)nn1 (stereo partly drawn) [Compound 156, N-(6-methoxypyridazin-3-yl)-3-((8aS,12S)-8a-methyl-1,2,6b,7,8,8a,10,12,12a,12b-decahydronaphtho[2′,1′:4,5]indeno[1,2-c]pyrazol-12-yl)propanamide] | -3% | 56% |
| C[C@]12CCC3c4ccccc4CCC3C1[C@H](CCC(=O)Nc1ccc(F)cn1)c1c[nH]nc12 (stereo partly drawn) [Compound 159, N-(5-fluoropyridin-2-yl)-3-((8aS,12S)-8a-methyl-1,2,6b,7,8,8a,10,12,12a,12b-decahydronaphtho[2′,1′:4,5]indeno[1,2-c]pyrazol-12-yl)propanamide] | 3% | 23% |
| C[C@]12CCC3c4ccccc4CCC3C1[C@H](CCC(=O)Nc1cc(F)ccn1)c1c[nH]nc12 (stereo partly drawn) [Compound 162, N-(4-fluoropyridin-2-yl)-3-((8aS,12S)-8a-methyl-1,2,6b,7,8,8a,10,12,12a,12b-decahydronaphtho[2′,1′:4,5]indeno[1,2-c]pyrazol-12-yl)propanamide] | 9% | 44% |
| COc1ccnc(NC(=O)CC[C@@H]2c3c[nH]nc3[C@@]3(C)CCC4c5ccccc5CCC4C23)c1 (stereo partly drawn) [Compound 165, N-(4-methoxypyridin-2-yl)-3-((8aS,12S)-8a-methyl-1,2,6b,7,8,8a,10,12,12a,12b-decahydronaphtho[2′1′:4,5]indeno[1,2-c]pyrazol-12-yl)propanamide] | -2% | 34% |
| Cc1ccnc(NC(=O)CC[C@@H]2c3c[nH]nc3[C@@]3(C)CCC4c5ccccc5CCC4C23)c1 (stereo partly drawn) [Compound 168, 3-((8aS,12S)-8a-methyl-1,2,6b,7,8,8a,10,12,12a,12b-decahydronaphtho[2′,1′:4,5]indeno[1,2-c]pyrazol-12-yl)-N-(4-methylpyridin-2-yl)propanamide] | 5% | 58% |
| C[C@]12CCC3c4ccccc4CCC3C1[C@H](CCC(=O)Nc1ccccn1)c1c[nH]nc12 (stereo partly drawn) [Compound 171, 3-((8aS,12S)-8a-methyl-1,2,6b,7,8,8a,10,12,12a,12b-decahydronaphtho[2′,1′:4,5]indeno[1,2-c]pyrazol-12-yl)-N-(pyridin-2-yl)propanamide] | -1% | 27% |
| C[C@]12CCC3c4ccccc4CCC3C1[C@H](CCC(=O)Nc1cnccn1)c1c[nH]nc12 (stereo partly drawn) [Compound 189, 3-((8aS,12S)-8a-methyl-1,2,6b,7,8,8a,10,12,12a,12b-decahydronaphtho[2′,1′:4,5]indeno[1,2-c]pyrazol-12-yl)-N-(pyrazin-2-yl)propanamide] | 9% | 46% |
| C[C@]12CCC3c4cccc(F)c4CCC3C1[C@H](CCC(=O)NC1CCCCC1)c1c[nH]nc12 (stereo partly drawn) [Compound 207, N-cyclohexyl-3-((8aS,12S)-3-fluoro-8a-methyl-1,2,6b,7,8,8a,10,12,12a,12b-decahydronaphtho[2′,1′:4,5]indeno[1,2-c]pyrazol-12-yl)propanamide] | 4% | 14% |
| C[C@]12CCC3c4cccc(F)c4CCC3C1[C@H](CCC(=O)N1CCCC1)c1c[nH]nc12 (stereo partly drawn) [Compound 210, 3-((8aS,12S)-3-fluoro-8a-methyl-1,2,6b,7,8,8a,10,12,12a,12b-decahydronaphtho[2′,1′:4,5]indeno[1,2-c]pyrazol-12-yl)-1-(pyrrolidin-1-yl)propan-1-one] | 0% | 19% |
| CCN(CC)C(=O)CC[C@@H]1c2c[nH]nc2[C@@]2(C)CCC3c4cccc(F)c4CCC3C12 (stereo partly drawn) [Compound 216, N,N-diethyl-3-((8aS,12S)-3-fluoro-8a-methyl-1,2,6b,7,8,8a,10,12,12a,12b-decahydronaphtho[2′,1′:4,5]indeno[1,2-c]pyrazol-12-yl)propanamide] | 6% | 10% |
| C[C@]12CCC3c4cccc(F)c4CCC3C1[C@H](CCC(=O)N1CCC3(CCOCC3)C1)c1c[nH]nc12 (stereo partly drawn) [Compound 219, 3-((8aS,12S)-3-fluoro-8a-methyl-1,2,6b,7,8,8a,10,12,12a,12b-decahydronaphtho[2′,1′:4,5]indeno[1,2-c]pyrazol-12-yl)-1-(8-oxa-2-azaspiro[4.5]decan-2-yl)propan-1-one] | 3% | 14% |
| CN(C)C(=O)CC[C@@H]1c2c[nH]nc2[C@@]2(C)CCC3c4cccc(F)c4CCC3C12 (stereo partly drawn) [Compound 222, 3-((8aS,12S)-3-fluoro-8a-methyl-1,2,6b,7,8,8a,10,12,12a,12b-decahydronaphtho[2′,1′:4,5]indeno[1,2-c]pyrazol-12-yl)-N,N-dimethylpropanamide] | 0% | 11% |
| C[C@]12CCC3c4cccc(F)c4CCC3C1[C@H](CCC(=O)Nc1ncccc1F)c1c[nH]nc12 (stereo partly drawn) [Compound 231, 3-((8aS,12S)-3-fluoro-8a-methyl-1,2,6b,7,8,8a,10,12,12a,12b-decahydronaphtho[2′,1′:4,5]indeno[1,2-c]pyrazol-12-yl)-N-(3-fluoropyridin-2-yl)propanamide] | 4% | 35% |
